# Measured values from paper PMC8445441, “Elucidating the mechanism by which synthetic helper peptides sensitize Pseudomonas aeruginosa to multiple antibiotics” (PLoS Pathogens, 2021).
# Read-outs that look alike come from different tables or passages of the source.
# Legend:
# P. aeruginosa HM-214 = conditions: strain HM-214; antibiotic + D-11 (MICb/MICbc 128/4)
# Outline: (§1)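 CLSI broth dilution; MHB; ~1 × 10^6 CFU/mL suspension mixed equal volume with drug; 37 °C for 18 h; visual read; triplicate. Broth sometimes supplemented with PG, PE, PC, CL, LPS, MgCl2, CaCl2 or PAβN.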
# P. aeruginosa AUMC-Pa-2 = conditions: strain AUMC-Pa-2; antibiotic + D-11 (MICb/MICbc 64/4)
# Outline: as §1
# P. aeruginosa AUMC-Pa-1 = conditions: strain AUMC-Pa-1; antibiotic + D-11 (MICb/MICbc 128/4)
# Outline: as §1
# P. aeruginosa AUMC-Pa-6 = assay: microbe, parasite or virus in culture; conditions: strain AUMC-Pa-6
# Outline: as §1
# P. aeruginosa AUMC-Pa-3 = assay: microbe, parasite or virus in culture
# Outline: as §1
# P. aeruginosa AUMC-Pa-5 = assay: microbe, parasite or virus in culture; conditions: strain AUMC-Pa-5
# Outline: as §1
# P. aeruginosa AUMC-Pa-4 = assay: microbe, parasite or virus in culture
# Outline: as §1
# P. aeruginosa PAO1 = assay: microbe, parasite or virus in culture
# Outline: as §1
# P. aeruginosa NR-31040 = assay: microbe, parasite or virus in culture; parameters: MICa: MIC of the antibiotic / MICac: MIC of the antibiotic in the combination: unit not given beside the values; conditions: strain NR-31040
# Outline: as §1
# P. aeruginosa ATCC27853 = assay: microbe, parasite or virus in culture; parameters: MICa: MIC of the antibiotic / MICac: MIC of the antibiotic in the combination: unit not given beside the values
# Outline: as §1
# P. aeruginosa PAK = assay: microbe, parasite or virus in culture; parameters: MICa: MIC of the antibiotic / MICac: MIC of the antibiotic in the combination: unit not given beside the values
# Outline: as §1
# P. aeruginosa PA14 = assay: microbe, parasite or virus in culture; parameters: MICa: MIC of the antibiotic / MICac: MIC of the antibiotic in the combination: unit not given beside the values
# Outline: as §1
# P. aeruginosa NR-31041 = assay: microbe, parasite or virus in culture; parameters: MICa: MIC of the antibiotic / MICac: MIC of the antibiotic in the combination: unit not given beside the values
# Outline: as §1
# [1] = system: clinical P. aeruginosa isolates; assay: microbe, parasite or virus in culture; conditions: Pseudomonas aeruginosa, 18 h
# Outline: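 MIC is the lowest drug concentration showing no visible growth after 18 h at 37 °C. Two-fold dilutions in MHB were combined with an equal volume of bacterial suspension (about 1 × 10^6 CFU/mL), following CLSI broth microdilution, in triplicate.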
# [2] = antibiotic + D-11 (MICb/MICbc 64/4)
# [3] = antibiotic alone, unit not given
# [4] = with D-11 at MICbc 4, unit not given
smiles,measurement,setting,value
CO[C@H]1[C@H](OC(=O)c2ccc(C)[nH]2)[C@H](O)[C@@H](Oc2ccc3c(O)c(NC(=O)c4c[nH]c(C(=O)Nc5c(O)c6ccc(O[C@H]7OC(C)(C)[C@@H](OC)[C@H](OC(=O)c8ccc(C)[nH]8)[C@@H]7O)c(C)c6oc5=O)c4C)c(=O)oc3c2C)OC1(C)C [Coumermycin A1],FICI,P. aeruginosa HM-214,0.281
same,FICI,P. aeruginosa AUMC-Pa-2,0.094
same,FICI,P. aeruginosa AUMC-Pa-1,0.039
same,FICI,P. aeruginosa AUMC-Pa-6; [2],0.313
same,MICa: MIC of the antibiotic,P. aeruginosa AUMC-Pa-6; [3],8
same,MICac: MIC of the antibiotic in the combination,P. aeruginosa AUMC-Pa-6; [4],2
same,MIC,"P. aeruginosa AUMC-Pa-3; Pseudomonas aeruginosa, AUMCPA3, 18 h, read-out: MICa: MIC of the antibiotic",8 µM
same,FICI,"P. aeruginosa AUMC-Pa-3; strain AUMC-Pa-3, antibiotic + D-11 (MICb/MICbc 128/4)",0.035
same,MICac: MIC of the antibiotic in the combination,"P. aeruginosa AUMC-Pa-3; strain AUMC-Pa-3, with D-11 at MICbc 4, unit not given",0.031
same,FICI,P. aeruginosa AUMC-Pa-5; [2],0.313
same,MICa: MIC of the antibiotic,P. aeruginosa AUMC-Pa-5; [3],8
same,MICac: MIC of the antibiotic in the combination,P. aeruginosa AUMC-Pa-5; [4],2
same,MIC,"P. aeruginosa AUMC-Pa-4; Pseudomonas aeruginosa, AUMCPA4, 18 h, read-out: MICa: MIC of the antibiotic",8 µM
same,FICI,"P. aeruginosa AUMC-Pa-4; strain AUMC-Pa-4, antibiotic + D-11 (MICb/MICbc 128/4)",0.094
same,MICac: MIC of the antibiotic in the combination,"P. aeruginosa AUMC-Pa-4; strain AUMC-Pa-4, with D-11 at MICbc 4, unit not given",0.5
same,reduction of the MICs,"P. aeruginosa PAO1; PAO1, in the presence of 4 μM of D-11",512 fold
same,MIC,"P. aeruginosa PAO1; Pseudomonas aeruginosa, PAO1, 18 h, read-out: MICa: the MIC of antibiotics",8 µM
same,FICI,"P. aeruginosa PAO1; S3 Table, PAO1, antibiotic + 2 μM D-11",0.078
same,MICac: the MIC for the antibiotic in the combination,"P. aeruginosa PAO1; S3 Table, PAO1, with 2 μM D-11",0.125 µM
same,MICac: the MIC for the antibiotic in the combination,"P. aeruginosa PAO1; S3 Table, PAO1, with 4 μM D-11",0.01562 µM
same,MICa: the MIC of antibiotics,"P. aeruginosa PAO1; S3 Table, antibiotic alone, PAO1",8 µM
same,FICI,P. aeruginosa NR-31040; antibiotic + D-11 (MICb/MICbc 128/4),0.281
same,MICa: MIC of the antibiotic,P. aeruginosa NR-31040; [3],8
same,MICac: MIC of the antibiotic in the combination,P. aeruginosa NR-31040; [4],2
same,MIC,"P. aeruginosa ATCC27853; Pseudomonas aeruginosa, ATCC27853, 18 h, read-out: MICa: MIC of the antibiotic",8 µM
same,FICI,"P. aeruginosa ATCC27853; strain ATCC27853, antibiotic + D-11 (MICb/MICbc 32/4)",0.156
same,MICac: MIC of the antibiotic in the combination,"P. aeruginosa ATCC27853; strain ATCC27853, with D-11 at MICbc 4, unit not given",0.5
same,MIC,"P. aeruginosa PAK; Pseudomonas aeruginosa, 18 h, read-out: MICa: MIC of the antibiotic",8 µM
same,FICI,"P. aeruginosa PAK; strain PAK, antibiotic + D-11 (MICb/MICbc 64/4)",0.125
same,MICac: MIC of the antibiotic in the combination,"P. aeruginosa PAK; strain PAK, with D-11 at MICbc 4, unit not given",0.5
same,MIC,"P. aeruginosa PA14; Pseudomonas aeruginosa, PA14, 18 h, read-out: MICa: MIC of the antibiotic",8 µM
same,FICI,"P. aeruginosa PA14; strain PA14, antibiotic + D-11 (MICb/MICbc 128/4)",0.094
same,MICac: MIC of the antibiotic in the combination,"P. aeruginosa PA14; strain PA14, with D-11 at MICbc 4, unit not given",0.5
same,MIC,"P. aeruginosa NR-31041; Pseudomonas aeruginosa, NR31041, 18 h, read-out: MICa: MIC of the antibiotic",8 µM
same,FICI,"P. aeruginosa NR-31041; strain NR-31041, antibiotic + D-11 (MICb/MICbc 64/4)",0.078
same,MICac: MIC of the antibiotic in the combination,"P. aeruginosa NR-31041; strain NR-31041, with D-11 at MICbc 4, unit not given",0.125
same,MIC,[1]; read-out: Antibiotic sensibility (MIC) of clinical P. aeruginosa isolate AUMC-Pa-1,8 µM
same,MIC,[1]; read-out: Antibiotic sensibility (MIC) of clinical P. aeruginosa isolate AUMC-Pa-2,8 µM
same,MIC,[1]; read-out: Antibiotic sensibility (MIC) of clinical P. aeruginosa isolate AUMC-Pa-3,8 µM
same,MIC,[1]; read-out: Antibiotic sensibility (MIC) of clinical P. aeruginosa isolate AUMC-Pa-4,8 µM
same,MIC,[1]; read-out: Antibiotic sensibility (MIC) of clinical P. aeruginosa isolate AUMC-Pa-5,8 µM
same,MIC,[1]; read-out: Antibiotic sensibility (MIC) of clinical P. aeruginosa isolate AUMC-Pa-6,8 µM
same,MIC,[1]; read-out: Antibiotic sensibility (MIC) of clinical P. aeruginosa isolate HM-214,8 µM
same,MIC,[1]; read-out: Antibiotic sensibility (MIC) of clinical P. aeruginosa isolate NR-31040,8 µM
same,MIC,[1]; read-out: Antibiotic sensibility (MIC) of clinical P. aeruginosa isolate NR-31041,8 µM
